Legend:
Format in all cases: in vivo
[1] = test system: LC3 protein fused to ZsGreen under the control of a skeletal muscle specific promoter; assay: zebrafish autophagy reporter, number of LC3 punctae in larvae; conditions: for autophagy activation by individual amino acids (FIG. 1) / autophagy activation by individual amino acids (FIG. 2) / autophagy activation by individual amino acids (FIG. 3): zebrafish larvae, 0.25 to 10 mM, 16 hours of treatment; for effect on basal autophagy: summary statement referring to the experimental data
From the text: Z stack images were captured for each larva and maximal projection images were produced. Number of LC3 punctae have been calculated with MetaXpress software (Moleculare Devices) and normalized by fish area.

bone mineral density = bone mineral density in old mice after 3 months; conditions: old mice (78 weeks old), thymol by gavage, AA mix in water, FIG. 6a
From the text: (§1) Assessment of the long term (3 months) effect of thymol (an exemplary autophagy-inducing agent) and an amino acid mix, known as autophagy inducers, alone or in combination, on muscle function in old mice. […] Old mice (78 weeks old; n=12/group; inventions) were taking 1) thymol (compound 1); 2) an amino acid (AA) mix and thymol (compounds 2 and 1); or 3) the AA mix (compound 2). In the experiments, thymol was given by gavage; the AA mix was given in water; and alanine for isonitrogenous was given as a control to young mice (Adult). Old untreated mice were also used as another control (old untreated). The AA mix comprises 28.67% of Leucine, 14.29% of Isoleucine, 14.29% of Valine, 12.21% of Proline, 12.21% of Glycine, 14.84% of Lysine and 3.48% of Cysteine (See Table 1).

bone stiffness = bone stiffness (bone strength) in old mice after 3 months; conditions: old mice (78 weeks old), thymol by gavage, AA mix in water, FIG. 6b
From the text: as §1

Compound	autophagy activation by individual amino acids (FIG. 1) [1]	autophagy activation by individual amino acids (FIG. 2) [1]	effect on basal autophagy [1]	also measured
NCC(=O)O [Glycine]	show at least some autophagy activation effects	show autophagy activation effects		
N[C@@H](Cc1ccc(O)cc1)C(=O)O [Tyrosine]	show at least some autophagy activation effects			
NC(=O)CC[C@H](N)C(=O)O [Glutamine]			reduce basal autophagy	
N=C(N)NCCC[C@H](N)C(=O)O [Arginine]	show at least some autophagy activation effects		reduce basal autophagy	autophagy activation by individual amino acids (FIG. 3) [1]: shows less autophagy activation effects
CC[C@H](C)[C@H](N)C(=O)O [Isoleucine]			reduce basal autophagy	
CC(C)C[C@H](N)C(=O)O [Leucine]		does not show any autophagy activation effect	reduce basal autophagy	
N[C@@H](CCC(=O)O)C(=O)O [Glutamate]	show at least some autophagy activation effects			autophagy activation by individual amino acids (FIG. 3) [1]: show clear autophagy activation effects
Cc1ccc(C(C)C)c(O)c1 [thymol]				increase in bone mineral density as compared with the control of the old untreated (bone mineral density): 1.6%; increase in bone stiffness as compared with the control of the old untreated (bone stiffness): 12%
N[C@@H](Cc1ccccc1)C(=O)O [Phenylalanine]	show at least some autophagy activation effects			
NC(=O)C[C@H](N)C(=O)O [Asparagine]	show at least some autophagy activation effects			
O=C(O)[C@@H]1CCCN1 [Proline]	show at least some autophagy activation effects			autophagy activation by individual amino acids (FIG. 3) [1]: show clear autophagy activation effects
N[C@@H](CS)C(=O)O [Cysteine]	show at least some autophagy activation effects	show autophagy activation effects		
CC(C)[C@H](N)C(=O)O [Valine]	show at least some autophagy activation effects	show autophagy activation effects		
